Some test systems named below: KM20L2 colon; LXFL 529 NSCLC; M19-MEL melanoma; XF 498 CNS; HOP-18 NSCLC; P388 leukemia; P388/ADR leukemia; SN12K1 renal; RXF-631 renal.
Holding throughout (assay): NCI tumour cell line growth inhibition, 48 h

Where “and” joins values, the source holds several entries; their conditions need not be identical. Identical values can stand only once.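 These data come from cells grown in 96-well plates and exposed to compound for 48 hours at five concentrations. TGI: total growth inhibition.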

Data on eleven molecules can be found in PubChem BioAssay (NCI).

Regarding `CC1=NN(C(=O)Cc2ccccc2)C(=O)/C1=C\c1ccccc1O`, the TGI in the test with KM20L2 colon, in the test with LXFL 529 NSCLC, with M19-MEL melanoma and with XF 498 CNS was greater than 100 µM in each case.

Turning to `O=Cc1c(Br)[nH]c2ccccc12`, the TGI in the test on HOP-18 NSCLC, with KM20L2 colon, in the test with M19-MEL melanoma, in the test on P388 leukemia, in the test with P388/ADR leukemia and in the test with SN12K1 renal was greater than 100 µM each time. In the test with XF 498 CNS, this molecule registered a TGI greater than 100 µM.

Regarding `COc1cc2c(c(OC)c1OC)-c1ccc(SC)c(=O)cc1[C@@H](NC(=O)c1ccc([N+](=O)[O-])cc1)CC2`, the TGI in the test on M19-MEL melanoma was 25 µM and > 100 µM; in the test with RXF-631 renal it was greater than 100 µM; in the test with XF 498 CNS, 25 µM.

As for `C[N+](C)(C)CC(=O)N/N=C(/Cc1nc2ccc([N+](=O)[O-])cc2[nH]c1=O)C(=O)Nc1cc(C(F)(F)F)ccc1Cl`, the TGI in the test with KM20L2 colon, in the test with M19-MEL melanoma and with RXF-631 renal was greater than 100 µM throughout.

Take `O=NN1C(c2ccccc2)CCCC1c1ccccc1` (stereo not given): the TGI in the test on HOP-18 NSCLC is greater than 100 µM; with KM20L2 colon, greater than 100 µM; with M19-MEL melanoma, greater than 100 µM; with P388 leukemia, 81.8 µM; with P388/ADR leukemia, greater than 100 µM; in the test with SN12K1 renal it was greater than 100 µM. In addition, the TGI in the test on XF 498 CNS stood at 87.5 µM.

Turning to `O=C(c1ccccc1O)c1cc(-c2ncc3c(=O)c4ccccc4oc3n2)c(-c2ccccc2O)[nH]c1=O`, the TGI with HOP-18 NSCLC was greater than 100 µM; in the test with M19-MEL melanoma it was greater than 68.2 µM; in the test with P388 leukemia, 47.8 µM; with P388/ADR leukemia it was 61 µM; in the test on SN12K1 renal, 35.1 µM; in the test on XF 498 CNS, 67.9 µM.

With `COc1ccc(CCCN2c3ccccc3Sc3ccccc32)cc1`, the TGI in the test with HOP-18 NSCLC, in the test with KM20L2 colon, in the test on LXFL 529 NSCLC and in the test on XF 498 CNS was greater than 100 µM throughout.

On to `Cc1ccc(C#CS(=O)(=O)C(F)(F)F)cc1`, for which the TGI in the test on HOP-18 NSCLC, with KM20L2 colon, in the test on M19-MEL melanoma, in the test with P388 leukemia, in the test on P388/ADR leukemia and in the test with SN12K1 renal was greater than 100 µM in each case. In addition, the TGI in the test on XF 498 CNS is greater than 100 µM.

As to `COc1ccc(C2=C(Cl)c3cc(OC)c(OC)cc3C2)cc1OC`, the TGI with HOP-18 NSCLC, with KM20L2 colon, in the test with LXFL 529 NSCLC, in the test with M19-MEL melanoma and in the test with XF 498 CNS was greater than 100 µM in each case.

As for `COc1ccc([C@H]2c3cc4c(cc3OC(O)(CO)[C@H]2C(=O)O)OCO4)c(OC)c1` (stereo not given in full) (tested in a mixture with another compound), the TGI with HOP-18 NSCLC, in the test with KM20L2 colon, in the test on LXFL 529 NSCLC, in the test on M19-MEL melanoma and with XF 498 CNS was greater than 100 µM throughout.

Turning to `COc1cc2c(c(OC)c1OC)-c1ccc(SC)c(=O)cc1[C@@H](NCc1cccc([N+](=O)[O-])c1)CC2`, the TGI in the test with HOP-18 NSCLC is greater than 100 µM; with KM20L2 colon, less than 0.01 µM; with LXFL 529 NSCLC it was greater than 100 µM; with M19-MEL melanoma, greater than 100 µM.
